Reference: patent US20240002424A1, “HEXOSAMINE COMPOUNDS AND METHODS THEREOF” (National Institute of Immunology, priority 2021, published 2024)

Columns and labels:
HL-60 cells [1] = assay: Western blot of total lysates for sLeX (CSLEX1) epitopes; assay type: cell-based, human; details: HL-60 total lysates; 50 μM, 72 h
Description: Effect of ManNAc analogues on expression of CD15s epitopes: HL-60 cells (3.0×10^5 cells/mL in 10 mL complete medium in 10 cm diameter petri dishes) were incubated with D, 1a, 1b, 1d, 1e, 1f, or 1g (50 mM), along with untreated (U) controls. After 72 h, cells were harvested, washed with PBS (3×5.0 mL), and lysed in RIPA buffer (10^7 cells in […]), containing protease inhibitor cocktail (PIC, 1:100). Protein concentration of the soluble fraction was estimated using the Bradford assay. Proteins from total lysates were resolved by 7.5% SDS-PAGE and blotted onto nitrocellulose membrane (constant current of 250 mA for 3.0 h at 4° C.). Membranes were blocked using non-fat milk (NFM) (5.0% w/v) in PBS and incubated with primary antibodies (5.0 mL PBS containing 5.0% NFM) overnight at 4° C. Membranes were washed with 0.1% PBS-T (0.1% v/v tween-20 in PBS; 3×5.0 mL, five min each at room temperature) followed by incubation with appropriate fluorophore or horse radish peroxidase (HRP) conjugated secondary antibodies for 1.0 h at room temperature. Membranes were washed with 0.1% PBS-T (3×5.0 mL, five min each) and then either directly scanned using Amersham Typhoon fluorescence scanner or developed on photographic films after treatment with enhanced chemiluminescence reagents. At least two independent replicate experiments were performed for all the blots.
The primary and secondary antibodies employed, along with dilution and stock concentration, are given below: Primary antibodies: Anti-CD15s (CSLEX1; IgM, dilution 1:5000; stock concentration 0.5 mg/mL) Anti-CLA (HECA452; IgM, dilution 1:1000, stock concentration 0.5 mg/mL) […] (AC15, IgG, dilution 1:20000, stock concentration 2.2 mg/mL); and Secondary Antibodies: AlexaFluor488-conjugated anti-mouse IgM (1:10000, stock concentration 2.0 mg/mL) AlexaFluor488-conjugated anti-rat IgM (1:10000, stock concentration 0.5 mg/mL) HRP-conjugated anti-mouse IgG (1:10000, stock concentration 0.8 mg/mL) Cy5-conjugated donkey anti-mouse IgG (1:10000, stock concentration 1.4 mg/mL) AlexaFluorplus488-conjugated anti-mouse IgG (1:10000, stock conc. 2.0 mg/mL).

HL-60 cells [2] = assay: NeuAz expression by SPAAC with DBCO-Cy5 and flow cytometry, competition with 1c; assay type: cell-based, human; details: 50 μM with 1c 50 μM, 24 h
Description: Estimation of NeuAz expression by 1c in the presence of peracetylated ManNAc analogues: Jurkat cells (3.0×10^5 cells/mL in 3.0 mL per well in 6-well plates) were incubated with (i) D, (ii) 1a, 1b, 1c, or 1d alone (50 mM) or (iii) 1a, 1b, or 1d (50 mM) in combination with 1c (50 mM). After 24 h, cells were harvested, washed using FSB, aliquoted to 5.0×10^5 cells per sample, and processed as mentioned above for estimation of NeuAz expression using DBCO-Cy5 ([…]). Experiments using HL-60 cells were performed using the same procedure.
Having confirmed metabolic acceptability in Jurkat cells, the compounds were tested on HL-60 (human acute myeloid leukemia) cells which are a reliable model for neutrophil adhesion. The effect on competitive suppression of NeuAz expression was studied using 1c as a reporter. HL-60 cells were treated with 1c either alone (50 μM) or in combination with ManNAc analogues (50 μM), including the straight chain derivatives, for 24 h followed by DBCO-Cy5 ligation. […] The decreasing ability of linear alkyl moieties (1d-1g), as a function of chain length, for suppression of NeuAz expression is in contrast to the cycloalkyl moieties. […] Similarly, 1a induced a reduction of 40% compared to only a 15% reduction by 1f.

HL-60 cells [3] = assay: Cell surface sialyl-Lewis-X (CD15s) by anti-CD15s (CSLEX1) flow cytometry; assay type: cell-based, human; details: single dosage 50 μM
HL-60 cells [4] = assay: Cell density as a measure of proliferation/cytotoxicity; assay type: cell-based, human; details: 100 μM, cell density measured at 24, 48, and 72 h
HL-60 cells [5] = assay: Cell surface sialyl-Lewis-X (CD15s) by anti-CD15s (CSLEX1) flow cytometry; assay type: cell-based, human; details: 50 μM, 24 h
Description: Effect of ManNAc analogues on the expression of sialyl-Lewis-X and Lewis-X: HL-60 cells (3.0×10^5 cells/mL in 2.0 mL complete medium in 6 well plate) were treated with D (vehicle), 1a, 1b, 1c, 1d, 1e, 1f, or 1g (50 PM), along with untreated (U) control. After 24 h, cells were harvested and washed with PBS (3×0.5 mL, 3000×g, 3.0 min at room temperature). Prior to last wash, cells were counted using Z2 coulter counter and aliquoted at 2.5×10^5 cells per sample and stained with either mouse anti-human CD15s (CSLEX1) (1.25 μg/mL) or mouse anti-human CD15 (HI98) (2.5 μg/mL) in HEPES/CaCl2) buffer (30 mM HEPES, 110 mM NaCl, 10 mM KCl, 2 mM MgCl2, 10 mM glucose, 1.5 mM CaCl2) containing 0.1% bovine serum albumin, pH 7.3) (total volume of 100 μL) for 30 min at 4° C. Cells were washed with HEPES/CaCl2 buffer (2×0.5 mL) and stained with AlexaFluor488-conjugated anti-mouse IgM (2.5 μg/mL) (for both CD15s and CD15) in 100 μL HEPES/CaCl2 for 30 min at 4° C. Cells were washed with HEPES/CaCl2 buffer (2×0.5 mL), resuspended in PBS (0.2 mL), treated with PI (2.5 μg/ml) and analysed by BD FACSVerse. Samples treated with (i) isotype antibodies followed by secondary antibody and (ii) secondary antibody alone were prepared as controls. Single Cells were gated for PI-negative population for 10,000 events and analysed by flow cytometry. Two replicate samples were prepared for each condition and each sample was counted twice. Three independent experiments were performed. Data was analysed using FlowJo V10. For plotting graph and calculation of significant probability ‘p’ values, two-way ANOVA with Dunnett's multiple comparison tests was employed in GraphPad Prism 8.
Time course of CD15s expression: HL-60 cells (3.0×10^5 cells/mL in 2.5 mL complete medium in 6-well plates) were incubated with D, 1a, 1b, or 1d (50 mM). At each time point, from day 1 to day 6, the cells were harvested from the entire contents of the well, washed, and aliquoted to 5.0×10^5 cells per sample, and immuno-stained using anti-CD15s (CSLEX1) antibody as mentioned above. On day 3, 4, and 5 complete media (1.0 mL) was added to each remaining well in order to compensate for media exhaustion. No contents were removed from the well during the period.

HL-60 cells [6] = assay: Total and glycoside bound sialic acids by periodate-resorcinol assay; assay type: cell-based, human; details: 100 μM, 48 h
Description: Total sialic acids were measured following reported procedures. HL-60 cells (3.0×10^5 cells/mL in 10 mL complete medium in 10 cm diameter Petri dishes) were incubated with D, 1a, 1b, 1c, 1d, 1e, 1f, 1g, 2a, or 2b (100 mM each), along with untreated (U) controls. After 48 h, cells were harvested, washed with PBS (3×5.0 mL; 3000×g, for 2.0 min), aliquoted to 2×10^6 cells per sample and resuspended in PBS (150 mL) in 1.5 mL microcentrifuge tubes. Cells were lyzed by three freeze-thaw cycles and the total lysates were subjected to periodate-resorcinol assay. Briefly, lysates (150 mL) were treated with 0.4 M aqueous periodic acid (6.67 mM) or (2.5 mL) and incubated either on ice for 15 min (for measurement of total sialic acids) or at 37° C. for 1.0 h (for measurement of glycoconjugate bound sialic acids). About 10 mL of reagent cocktail was prepared using 6% w/v of aqueous resorcinol (1.0 mL), 2.5 mM copper (II) sulfate (1.0 mL), 44% of concentrated hydrochloric acid (4.4 mL), and water (3.6 mL). The mixture was then treated with the reagent cocktail (250 mL per sample), boiled at 100° C. for 10 min, rapidly quenched in an ice-bath and treated with tert-butanol (250 mL). The contents were centrifuged and the supernatants were aliquoted (200 mL) into 96-well plates and the absorbance at 630 nm was measured. At least three replicates were prepared for each condition.

[7] = tested on: neural cell adhesion molecules (NCAM); details: cited from earlier work
HL-60 cells [8] = details: 10 mM; cited from earlier work

SMILES	sLeX (CSLEX1) bands between 150-100 kDa in western blot (HL-60 cells [1])	NeuAz expression with respect to 1c alone (100%) (HL-60 cells [2])	reduction of NeuAz expression with respect to controls (HL-60 cells [2])	suppression of NeuAz expression (in words) (HL-60 cells [2])	maximum increase in sLeX levels on day 2 (HL-60 cells [3]; day 2)	sLeX levels by day 6 (in words) (HL-60 cells [3]; day 6)	day of peak sLeX expression (HL-60 cells [3]; time course day 1 to day 6)	decrease in cell density (HL-60 cells [4])	increase in binding of CSLEX1 antibody (sLeX) compared to controls (HL-60 cells [5])	decrease in total sialic acid levels (HL-60 cells [6])	ratio of total sialic acids to glycoside bound sialic acids vs untreated cells (HL-60 cells [6])	inhibition of polysialic acid attachment to NCAM [7]	increase in binding of CSLEX1 antibody (sLeX), in words (HL-60 cells [5])	glycoside bound sialic acid levels (in words) (HL-60 cells [6])	expression of sLeX epitopes (KM93 antibody), particularly on PSGL-1/CD162 (HL-60 cells [8])
CCCCC(=O)N[C@@H]1C(OC(C)=O)O[C@H](COC(C)=O)[C@@H](OC(C)=O)[C@@H]1OC(C)=O (stereo partly drawn) [Compound 1g, 1,3,4,6-tetra-O-acetyl-2-(1-pentanoyl)amino-2-deoxy-D-mannopyranose]	moderate increase	90%	10%	mild effect	2.2 fold	returned to normal levels	2 days	~10%	~2.5 fold	0.7 fold	lower ratios				
CCCC(=O)N[C@@H]1[C@@H](OC(C)=O)O[C@H](COC(C)=O)[C@@H](OC(C)=O)[C@@H]1OC(C)=O [Compound 1f, 1,3,4,6-tetra-O-acetyl-2-(1-butanoyl)amino-2-deoxy-α-D-mannopyranose]	moderate increase	85%	15%	moderate suppression								efficient inhibitor	three-fold increase	comparable to untreated cells	
CCC(=O)N[C@@H]1C(O)O[C@H](CO)[C@@H](O)[C@@H]1O (stereo partly shown) [ManNProp]															enhanced expression of sLeX epitopes
